# Experimental data from patent US20030143172A1, “Hair treatment agent” (priority 2001, published 2003).
# Key:
# [1] = Dechlorinating ability (iodometric titration of free chlorine in chlorine water); conditions: initial free chlorine 0.43
# Procedure: To chlorine water having a previously determined free chlorine concentration, APS or AG was added and the amount of free chlorine decreased was measured. The free chlorine amount was measured by iodometric titiration.
# To each of three Erlenmeyer flasks with a stopper, 10 ml of chlorine water having a known free chlorine concentration was added and thereto, APS or AG in an equimolar amount, 1.5 times molar amount or 2 times molar amount to the free chlorine in the solution was added and stirred. After 5 minutes, 10 minutes, 15 minutes and 20 minutes, the amount of free chlorine was titrated.
# In the titration, 2 ml of each reaction solution was charged into another Erlenmeyer flask with a stopper, 50 ml of distilled water was added thereto, 1.0 g of potassium iodide and 1 ml of a 0.2% starch solution were further added and after stirring, a 0.1 N sodium thiosulfate standard solution was added dropwise. The point where purple color was faded out was designated as a final point. From the amount of sodium thiosulfate added dropwise at this time, the amount of free chlorine was calculated.
# [2] = Ability of preventing decolorization of melanin pigment caused by chlorine (absorbance at 400 nm); set-up: species or system sepia officinailis; conditions: for 3 Hours After Addition abs / 6 Hours After Addition abs / Before Addition abs: 400 nm; for 3 Hours After Addition abs / Residual Ratio, 3H: 3 hours after addition of chlorine water; for 6 Hours After Addition abs / Residual Ratio, 6H: 6 hours after addition of chlorine water; for Before Addition abs: before addition of chlorine water (baseline)
# Procedure: A melanin pigment (sepia officinailis) was added to a 2 N aqueous sodium hydroxide solution and dissolved under heating at 80° C. for 2 hours to adjust the melanin pigment content in the solution to 50 ppm. This melanin pigment solution was divided into 5 vessels and 5 kinds in total of sample solutions were prepared, namely, solutions adjusted to an APS concentration of 10 mM and 50 mM, solutions adjusted to an AG concentration of 10 mM and 50 mM, and a control having added thereto neither APS nor AG. Then, 4 ml of each solution was sampled in a sampling bottle and 0.5 ml of commercially available chlorine water (free chlorine concentration: about 0.43%) was added to each sampling bottle. As a blank, a melanin pigment solution was used. The prevention of melanin decolorization was evaluated by measuring the absorbance (abs) at 400 nm using a spectrophotometer when 3 hours (3 H) and 6 hours (6H) were passed after the addition of chlorine water.
# [3] = Ability of preventing hair damage caused by chlorine (color difference ΔE of hair); set-up: species or system human; conditions: aqueous 10 mM solution, chlorine water, one hour
# Procedure: 120 ml of an aqueous 10 mM APS solution, 120 ml of an aqueous 10 mM AG solution and 120 ml of purified water each was poured into two bottles with a screw opening. In the aqueous 10 mM APS solution, the aqueous 10 mM AG solution or the purified water, hair of an adult and hair of a child, which were previously subjected to the measurement of color (L*a*b color specification) by a spectrocolorimeter (Macbeth Gretag APM50), each was immersed in an amount of 70 to 80 mg while stirring. To each solution in which the hair was immersed, 15 ml of a commercially available chlorine water (concentration of free chlorine: about 0.43%) was added. After stirring for one hour, the hair was filtered, washed with water and air-dried. The resulting hairs were measured on the color (L*a*b* color specification) and from the values obtained, the color difference ΔE value was calculated.
# [4] = Hydroxy radical-scavenging ability (ESR-spin trap method); type: biochemical
# Procedure: Using “ESR-spin trap method”, the radical scavenging in percentage of each of ascorbyl 2-phosphate sodium salt (APS), ascorbyl 2-phosphate magnesium salt (APM) and ascorbyl 2-glucoside (AG) was measured. The radicals were chemically generated.
# 10 μl of 1M HEPES buffer solution (pH: 7.2), 10 μl of 1 mM diethylenetriaminepentaacetic acid, each of 20 μl of APS, APM or AG solution, 100 μl of purified water, 40 μl of 40 mM 2,2′-azobis(2-methylpropionamidine)dihydrochloride and 20 μl of 0.5 M 5,5-dimethyl-1-pyrroline-N-oxide were added and mixed. The obtained solutions were sequentially enclosed into flat cells for ESR and the cells were placed in an ESR apparatus (“JES-RE1X”, manufactured by JEOL Ltd.) and subjected to the measurement of hydroxy radical-scavenging ability. The hydroxy radical-scavenging ability is shown by S/M value (area value of spectrum/area value of manganese marker) and the scavenging ratio is shown by percentage (%).
# [5] = Ability of preventing hair damage caused by sunlight (weather meter irradiation, ΔE of hair); conditions: pH 7.2, irradiation 24 hours
# Procedure: An APS solution, an AG solution, which were each adjusted to a pH of 7.2 and a concentration of 10 mM or 100 mM, and purified water (control) each was charged into a polyethylene bag and in respective bags, from 70 to 80 g of hair previously measured on the color (L*a*b* color specification) by a spectrocolorimeter (Macbeth Gretag APM50) was enclosed. After the immersion for about 2 hours, light was irradiated thereon using a weather meter (high energy xenon weather meter, manufactured by Suga Shikenki K. K.). The irradiation time was 24 hours and the integrated light intensity was about 10,000 kj/m^2. The hair after the irradiation was washed with purified water, air-dried and then subjected to the measurement of color (L*a*b* color specification) and from the values obtained, the color difference ΔE value was calculated.
# [6] = molar ratio additive:free chlorine 1.0:1.0
# [7] = molar ratio additive:free chlorine 1.5:1.0
# [8] = molar ratio additive:free chlorine 2.0:1.0
Compound,"Free chlorine After 5 Minutes [1, 6] [%]","Free chlorine After 10 Minutes [1, 6] [%]","Free chlorine After 15 Minutes [1, 6] [%]","Free chlorine After 20 Minutes [1, 6] [%]","Free chlorine After 5 Minutes [1, 7] [%]","Free chlorine After 10 Minutes [1, 7] [%]","Free chlorine After 15 Minutes [1, 7] [%]","Free chlorine After 20 Minutes [1, 7] [%]","Free chlorine After 5 Minutes [1, 8] [%]","Free chlorine After 10 Minutes [1, 8] [%]","Radical scavenging, % (S/M relative to 0 mM = 100.0) ([4]; concentration 0.01 mM) [%]",S/M (area value of spectrum/area value of manganese marker) ([4]; concentration 0.01 mM),"Radical scavenging, % (S/M relative to 0 mM = 100.0) ([4]; concentration 0.03 mM) [%]",S/M (area value of spectrum/area value of manganese marker) ([4]; concentration 0.03 mM),"Radical scavenging, % (S/M relative to 0 mM = 100.0) ([4]; concentration 0.1 mM) [%]",S/M (area value of spectrum/area value of manganese marker) ([4]; concentration 0.1 mM),"Radical scavenging, % (S/M relative to 0 mM = 100.0) ([4]; concentration 0.3 mM) [%]",S/M (area value of spectrum/area value of manganese marker) ([4]; concentration 0.3 mM),"Radical scavenging, % (S/M relative to 0 mM = 100.0) ([4]; concentration 1 mM) [%]",S/M (area value of spectrum/area value of manganese marker) ([4]; concentration 1 mM),also measured
"O=C1O[C@H]([C@@H](O)CO)C([O-])=C1OP(=O)([O-])[O-].[Na+].[Na+].[Na+] [APS, ascorbyl 2-phosphate sodium salt]",0.02,0.012,0.008,0,0.005,0,0,0,0,0,103.1,0.67,104.6,0.68,78.5,0.51,53.8,0.35,16.9,0.11,"Free chlorine After 15 Minutes [1, 8]: 0%; Free chlorine After 20 Minutes [1, 8]: 0%; 3 Hours After Addition abs ([2]; additive 10 mM): 0.449 abs; 6 Hours After Addition abs ([2]; additive 10 mM): 0.453 abs; Before Addition abs ([2]; additive 10 mM): 0.577 abs; Residual Ratio, 3H ([2]; additive 10 mM): 0.773; Residual Ratio, 6H ([2]; additive 10 mM): 0.785; 3 Hours After Addition abs ([2]; additive 50 mM): 0.545 abs; 6 Hours After Addition abs ([2]; additive 50 mM): 0.505 abs; Before Addition abs ([2]; additive 50 mM): 0.592 abs; Residual Ratio, 3H ([2]; additive 50 mM): 0.921; Residual Ratio, 6H ([2]; additive 50 mM): 0.853; ΔE Value of Hair Treated With Chlorine ([3]; hair of Adult person): 0.4; ΔE Value of Hair Treated With Chlorine ([3]; hair of child): 0.5; ΔE Value of Weather Meter Treated-hair ([5]; concentration 10 mM): 14.36; ΔE Value of Weather Meter Treated-hair ([5]; concentration 100 mM): 4.54"
"O=C1O[C@H]([C@@H](O)CO)C(O)=C1O[C@H]1O[C@H](CO)[C@@H](O)[C@H](O)[C@H]1O [AG, ascorbyl 2-glucoside]",0.033,0.02,0.01,0,0.008,0,0,0,0,0,98.5,0.64,89.2,0.58,98.5,0.64,90.8,0.59,61.5,0.40,"Free chlorine After 15 Minutes [1, 8]: 0%; Free chlorine After 20 Minutes [1, 8]: 0%; 3 Hours After Addition abs ([2]; additive 10 mM): 0.458 abs; 6 Hours After Addition abs ([2]; additive 10 mM): 0.447 abs; Before Addition abs ([2]; additive 10 mM): 0.575 abs; Residual Ratio, 3H ([2]; additive 10 mM): 0.797; Residual Ratio, 6H ([2]; additive 10 mM): 0.777; 3 Hours After Addition abs ([2]; additive 50 mM): 0.553 abs; 6 Hours After Addition abs ([2]; additive 50 mM): 0.540 abs; Before Addition abs ([2]; additive 50 mM): 0.569 abs; Residual Ratio, 3H ([2]; additive 50 mM): 0.972; Residual Ratio, 6H ([2]; additive 50 mM): 0.949; ΔE Value of Hair Treated With Chlorine ([3]; hair of child): 1.1; ΔE Value of Weather Meter Treated-hair ([5]; concentration 10 mM): 10.72; ΔE Value of Weather Meter Treated-hair ([5]; concentration 100 mM): 6.01"
"O=C1O[C@H]([C@@H](O)CO)C([O-])=C1OP(=O)([O-])[O-].O=C1O[C@H]([C@@H](O)CO)C([O-])=C1OP(=O)([O-])[O-].[Mg+2].[Mg+2].[Mg+2] [APM, ascorbyl 2-phosphate magnesium salt]",–,–,–,–,–,–,–,–,–,–,89.2,0.58,92.3,0.60,81.5,0.53,64.6,0.42,18.5,0.12,–
